Laboratory results as given in a melting point compilation (Tetko et al.; mined from patent text by program, amines drawn as free bases though some values may be those of a salt).

Row | SMILES | melting point [°C]
1 | Cc1cc2c(cc1-c1cc(C=CC(=O)O)ccc1F)C(C)(C)CCC2(C)C | 181 to 183
2 | CC(=O)N1c2ccccc2-c2c([N+](=O)[O-])cnn2C1(C)C | 182 to 183
3 | Cc1nc2c(C)cccn2c(=O)c1CCN1CCC(c2noc3cc(F)ccc23)CC1 | 200
4 | Cc1cc(Cl)cc(C(=O)NC(C)C2CC2)c1NC(=O)c1cc(Br)nn1-c1ncccc1Cl (stereo unspecified) | 182 to 183
5 | CCCCCCCCCCCCCCCCCCOc1cc(OCCCBr)cc(N(CC(=O)OC)CC(=O)OC)c1 | 67 to 69
6 | COC(=O)c1cc(Cl)cnc1N | 139 to 140
7 | CCC(C)C(C(=O)O)n1sc2ccccc2c1=O (stereo unspecified) | 50 to 52
8 | Cc1c(C(=O)O)sc2cc(Cc3cccnc3)ccc12 | 250 to 252
9 | O=c1c2ccccc2nc2n1CCc1c-2[nH]c2ccc(F)cc12 | 290
10 | Cc1nn(-c2ccc([N+](=O)[O-])cc2F)c(=O)[nH]1 | 211 to 212
11 | CCC1CC(=Cc2ccccc2Cl)C(=O)O1 (stereo unspecified) | 38 to 39
12 | COc1ccccc1N1CCN(CC2CCc3ccccc3C2O)CC1 (stereo unspecified) | 110 to 113
13 | COc1ccnc(N2CCC3(CCCN(Cc4c[nH]c5ccccc45)C3=O)CC2)n1 | 190 to 191
14 | O=C(NC/C=C/c1ccccc1)c1cccs1 | 110
15 | CCCCCC(CC(=O)Nc1cc(C(N)=O)ccc1C(C)(C)C)c1cc(F)c(OC)cc1OC (stereo unspecified) | 150
16 | CC(=O)Nc1ccc(C#N)c(F)c1F | 175 to 177
17 | Cc1cc2oc(=O)c3c(c2cc1[N+](=O)[O-])CCNC3 | 197 to 199
18 | Oc1ccccc1CNCCCCCCCCCCCCNCc1ccccc1O | 72 to 73
19 | Cn1c(C=NNC(N)=S)cnc1[N+](=O)[O-] | 282 to 287
20 | Cc1cc(C)c([N+](=O)[O-])cc1N1CCC1=O | 102
21 | COC(=O)Cc1c(F)cccc1Cl | 79 to 80

Row | SMILES | melting point [°C]
22 | CC(=O)OC1CSC(Oc2ccc(C)nc2)C(OC(C)=O)C1OC(C)=O (stereo unspecified) | 130
23 | O=C(O)[C@H](Cc1ccccc1)N[C@@H](CCc1ccccc1)C(=O)OCc1ccccc1 | 141 to 144
24 | CCCS(=O)c1cc(O)ccc1C (stereo unspecified) | 84 to 85
25 | COc1c(Cl)ccc(-c2nc(C(=O)OC(C)C)cc(N)c2F)c1F | 177 to 179
26 | CC1(CCN)OCCc2c1[nH]c1ccccc21 (stereo unspecified) | 80 to 84
27 | NS(=O)(=O)c1cc2nc(O)c(O)nc2c2scnc12 | > 400
28 | CCCCNC(=O)Nc1ccc(-c2ccncc2)c(C)n1 | 164 to 165
29 | CCOC(=O)CCOc1cccc2c1CCCC2=O | 57 to 59
30 | O=S(=O)(Nc1c(F)c(F)nc(F)c1F)C(F)(F)F | 69 to 70
31 | CCCCCCCCCCCCCCCCCCOCCOCCO | 45 to 46
32 | O=C(O)c1cc(=O)[nH]c2ccc(I)cc12 | 361 to 363
33 | C[C@@H]1Cc2ccsc2[C@H](C)N1CCNC(=O)c1c(F)c(F)c(F)c(F)c1F (relative stereo) | 116 to 119
34 | COC(=O)CCCC#Cc1nc(C(F)(F)F)ccc1N | 49
35 | COC(=O)CC1NC(=O)c2ccccc21 (stereo unspecified) | 136 to 138
36 | NC(=O)c1nn(C2OC(CO)C(O)C2O)nc1C(N)=O (stereo unspecified) | 210 to 212
37 | Cc1cc(CO)c(C)cc1O | 164 to 165
38 | CCCCCCCCCCCCc1c2c(=O)c3cc(-c4cccs4)ccc3c2c(CCCCCCCCCCCC)c2c(=O)c3cc(-c4cccs4)ccc3c12 | 205 to 206
39 | Cc1ccccc1NC(=O)c1ccccc1C(c1ccc(O)cc1)c1ccc(O)cc1 | 267 to 269
40 | O=C(Nn1ccnc1)N1CCCCC1COCc1ccccc1Cl (stereo unspecified) | 91 to 92
41 | CCCC(=O)c1cnc2c(OC)cc(O)cc2c1Nc1ccc(O)cc1C | 251 to 253
42 | O=C(O)c1ccc(C(F)(F)F)c([N+](=O)[O-])c1 | 156 to 158

Row | SMILES | melting point [°C]
43 | COc1cc(C(O)(C(F)(F)F)C(F)(F)F)cc(C)c1NS(C)(=O)=O | 109 to 110
44 | Cc1cccc([N+](=O)[O-])c1CC(CC(=O)O)C(=O)O (stereo unspecified) | 172 to 176
45 | NC1CN(c2c(F)cc3c(=O)c(C(=O)O)cn(C4CC4)c3c2F)CC12OCCO2 (stereo unspecified) | 224 to 226
46 | C[C@@]1(O)CCCC[C@H]1n1nc(-c2c(-c3ccccc3)nn3ccccc23)ccc1=O (relative stereo) | 197 to 198
47 | COP(=O)(Cc1nc2ccccc2nc1CP(=O)(OC)OC)OC | 115 to 116
48 | CC(C)=NNc1cc2c(nn1)CCN(C(=O)c1ccccc1F)C2 | 200 to 203
49 | CCC(CC)N(O)C(=O)NC(C)(C)c1cccc(C(C)(C)NC(=O)N(O)C(CC)CC)c1 | 170 to 172
50 | COc1ccc(C(=O)c2cccs2)c2occ(C)c12 | 131 to 134
51 | COc1ccc(C(=O)/C=C/N(C)C)cc1COC(=O)C(C)(C)C | 82 to 84
52 | CC1=NN(c2ccc(C)c(C)c2)C(=O)C1=NNc1cccc(-c2cccc(P(=O)(O)O)c2)c1O | 144 to 149
53 | CC(C)CN1C(N)=CC(=O)N2CCN=C21 | 230 to 232
54 | CC(C)(C)c1cccc(S(=O)(=O)n2c(Cc3ccc(C(=O)O)c(F)c3)cc3cc(C(F)(F)F)ccc32)c1 | 144
55 | O=C(Nc1nnc(SCc2ccccc2)s1)C1CC1 | 182 to 184
56 | CCCCCCCCCCCCc1cnn(C(C(=O)Nc2c(OC)cc(OC)cc2OC)c2ccccc2)n1 (stereo unspecified) | 123 to 125
57 | CC1(C)CC(=O)C(SCC2CCCCC2)=C(O)C1 | 67.5 to 69.5
58 | CCSCCOC(=O)C1=C(C)NC(C)=C(C(=O)OCC=Cc2ccccc2)C1c1cccc([N+](=O)[O-])c1 (stereo unspecified) | 142 to 144
59 | O=C(CC(c1ccccc1)(c1ccccc1)c1ccccc1)N1CC2=C(C1)c1cccc3cccc2c13 | 159 to 168
60 | CCc1cc(Cl)cc2c1NC(C)NS2(=O)=O (stereo unspecified) | 181 to 183
61 | COc1ccc(Cn2c(=S)[nH]c(=S)c3[nH]cnc32)cc1OC1CCCC1 | 215 to 218

Other lines, results leading:

Row | melting point [°C] | SMILES
62 | 64 to 67 | CCCCCCCc1ccc(-c2nc(-c3ccccc3Cl)nn2C)cc1
63 | 116 to 119 | COc1ccc(NC2=NN(c3cccnc3)CC2)cc1
64 | 123 to 125 | CCc1c(CC(=O)NCCCCCCNC(=O)Cc2ccc(OC)cc2)ccc(OC)c1OC
65 | 172 to 174 | O=C(O)COc1ccc2c(c1)Cc1sc(S(=O)(=O)CCC(c3ccccc3)c3ccccc3)nc1-2
66 | 165 | CCN(Cc1ccccc1OCc1ccccc1)c1ccc(C(=O)O)cc1
67 | 123 to 125 | Cc1ccc(-c2nc(Sc3ccc(Cl)cc3)cc(N3CCN(CCO)CC3)n2)cc1
68 | 193 | CCCCCCCCCCCCCCCCCCOc1ccc(C(=O)Nc2ccc(O)cc2)cc1
69 | 173 to 175 | O=C1c2ccccc2C(=O)N1Cc1cc(Cl)ccc1OCc1cccnc1
70 | 131 | OCc1cccc2nc(-c3ccccc3)oc12
71 | 198 to 199 | NC(=O)c1cc2c(SCc3ccc(Cl)cc3)cncc2s1
72 | 182 to 184 | O=C(O)C(O)=CC(=O)c1cc(Cc2ccc(F)cc2)cn(Cc2ccccc2F)c1=O
73 | 312 to 315 | CCCCc1nc2cc(Cl)cc(C(=O)O)c2n1C(C)c1ccc(C(=O)O)cc1 (stereo unspecified)
74 | 150 | CC(Oc1ccc(Nc2cnc3cc(Cl)ccc3c2)cc1)C(=O)O (stereo unspecified)
75 | 164 to 165 | Cc1oc(-c2ccccc2)nc1COc1ccc(CON=C(CC(N)=O)c2ccccc2)cc1
76 | 115 to 116 | N#Cc1cnc2ccc(/C=C/CCN3CCOCC3)cc2c1Nc1ccc(Cl)cc1Cl
77 | 134 to 135 | O=C(O)C(OCOc1ccc(-c2ccc(Cl)cc2)cc1)(C(F)(F)F)C(F)(F)F
78 | 266 to 267 | O=C1NCCN1c1ccc(S(=O)(=O)Nc2ccc(I)cc2)cc1
79 | 217 to 219 | CS(=O)(=O)Nc1cc(C(c2cc(F)ccc2F)S(=O)(=O)c2ccc(Cl)cc2)c(F)cn1 (stereo unspecified)
80 | 115 to 117 | Fc1ccc(Nc2nc3ccccc3o2)c(F)c1
81 | 191 to 194 | O=C(O)c1cccc(-n2ccc(-c3ccc(OC(F)(F)F)cc3)n2)c1

Row | melting point [°C] | SMILES
82 | 246 to 248 | Nc1nc(N)nc(-c2ccc(OCc3ccc(Cl)cc3)cc2)n1
83 | 282 to 283 | CCC(=O)Nc1ccc2c(Nc3cccc(Br)c3)ncnc2c1
84 | 140 | Oc1ccc(-c2ccc(OC(F)(F)F)cc2)cc1
85 | 121 | CC1(C)CC(=O)N(CC(COc2ccc(-c3ccc(C#N)cc3)cc2)N(O)C=O)C(=O)C1 (stereo unspecified)
86 | 139 to 140 | COc1ccc(C#CC(C)N(O)C(N)=O)cc1Oc1ccc(F)cc1 (stereo unspecified)
87 | 126 to 128 | COC(=O)c1ccc(OCC2CC(=O)N(c3ccc(OC(C)(C)C)cc3)C2)cc1 (stereo unspecified)
88 | 137 to 139 | Cc1ccc(C(CC(=O)O)c2ccc(F)cc2)cc1 (stereo unspecified)
89 | 129 to 130 | CN1C(=O)CCC2(C)c3ccc(SCc4cc5ccccc5cn4)cc3CCC12 (single isomer, unassigned; (+))
90 | 161 to 162 | Nc1cc(C(=O)O)cc(OCc2ccccc2)c1-c1ccccc1
91 | 115 to 116 | CN(CCc1ccccc1)c1nc(=O)c2cccnc2s1
92 | 78 to 80 | CCOC(=O)[C@H](Cc1ccc(C(F)(F)F)cc1)[C@@H](O)c1ccncc1 (racemic)
93 | 116 to 117 | ONCC1(c2ccc(OCc3ccc4ccccc4n3)cc2)CCCC1
94 | 58 to 60 | c1ccc(COc2cccc3c2NCC3)cc1
95 | 160 to 162 | CC(C)(C)OC(=O)NCc1ccc(C(=O)Nc2ccccc2N)cc1
96 | 130 to 131 | Cc1nccc(CO)c1OCc1ccccc1
97 | 256 to 257 | Cc1cc(Nc2c3ccccc3nc3ccccc23)ccc1N
98 | 147 to 148 | CS(=O)(=O)c1ccc(Oc2cc(OCc3cccc(Cl)n3)c3[nH]c(C4=NCC(CC(N)=O)S4)cc3c2)cc1 (stereo unspecified)
99 | 128 to 129 | O=C(O)CCCc1cccc(OCc2cn(-c3ccc(C(F)(F)F)cn3)nc2C2CCCCC2)c1
100 | 193 to 195 | CNc1nc(-c2cccc(NC(=O)c3ccc(Cl)cc3)c2)c2cc(OC)c(OC)cc2n1
101 | 298 to 300 | O=C(Nc1ccc(-c2c[nH]c(=O)cn2)cc1)c1ccc([N+](=O)[O-])cc1
